Results reported in ChEMBL document CHEMBL1212707, “Decoding endocannabinoid signaling” (Nat Chem Biol, 2009).

How the values were obtained:
[1] = Inhibition of MAGL
Mus musculus = organism: Mus musculus; assay: Inhibition of MAGL in mouse brain; format: tissue-based; conditions: dose or concentration not given here
Brain = assay: Increase in 2-arachidonoylglycerol level in mouse brain relative to untreated control; format: functional

Question: Which IC50 [1] does the source give for `O=C(Oc1ccc([N+](=O)[O-])cc1)N1CCC(C(O)(c2ccc3c(c2)OCO3)c2ccc3c(c2)OCO3)CC1` here?
Answer: 8 nM

Question: What about the inhibition (Mus musculus) of the same compound?
Answer: 85%

Question: What about the “fold change (FC)” value (Brain) of the same compound?
Answer: 8
